# According to the kinase profiling compilation of Christmann-Franck et al. (2016):
# Legend:
# ABL2 (human) = ABL2 (human) (UniProt P42684); test: Caliper, Mobility shift assay off-chip
# AURKA (human) = AURKA (human) (UniProt O14965); test: Caliper, Mobility shift assay off-chip
# CSF1R (human) = CSF1R (human) (UniProt P07333); test: Caliper, Mobility shift assay off-chip
# DDR1 (human) = DDR1 (human) (UniProt Q08345); test: Caliper, Mobility shift assay off-chip
# DDR2 (human) = DDR2 (human) (UniProt Q16832); test: Caliper, Mobility shift assay off-chip
# EPHA6 (human) = EPHA6 (human) (UniProt Q9UF33); test: Caliper, Mobility shift assay off-chip
# HIPK4 (human) = HIPK4 (human) (UniProt Q8NE63); test: Caliper, Mobility shift assay off-chip
# MAPK14 (human) = MAPK14 (human) (UniProt Q16539); test: Caliper, Mobility shift assay off-chip
# MUSK (human) = MUSK (human) (UniProt O15146); test: Caliper, Mobility shift assay off-chip
# PDGFRB (human) = PDGFRB (human) (UniProt P09619); test: Caliper, Mobility shift assay off-chip
# Chain of PDGFRB (human) (P09619 whole entry, looked up): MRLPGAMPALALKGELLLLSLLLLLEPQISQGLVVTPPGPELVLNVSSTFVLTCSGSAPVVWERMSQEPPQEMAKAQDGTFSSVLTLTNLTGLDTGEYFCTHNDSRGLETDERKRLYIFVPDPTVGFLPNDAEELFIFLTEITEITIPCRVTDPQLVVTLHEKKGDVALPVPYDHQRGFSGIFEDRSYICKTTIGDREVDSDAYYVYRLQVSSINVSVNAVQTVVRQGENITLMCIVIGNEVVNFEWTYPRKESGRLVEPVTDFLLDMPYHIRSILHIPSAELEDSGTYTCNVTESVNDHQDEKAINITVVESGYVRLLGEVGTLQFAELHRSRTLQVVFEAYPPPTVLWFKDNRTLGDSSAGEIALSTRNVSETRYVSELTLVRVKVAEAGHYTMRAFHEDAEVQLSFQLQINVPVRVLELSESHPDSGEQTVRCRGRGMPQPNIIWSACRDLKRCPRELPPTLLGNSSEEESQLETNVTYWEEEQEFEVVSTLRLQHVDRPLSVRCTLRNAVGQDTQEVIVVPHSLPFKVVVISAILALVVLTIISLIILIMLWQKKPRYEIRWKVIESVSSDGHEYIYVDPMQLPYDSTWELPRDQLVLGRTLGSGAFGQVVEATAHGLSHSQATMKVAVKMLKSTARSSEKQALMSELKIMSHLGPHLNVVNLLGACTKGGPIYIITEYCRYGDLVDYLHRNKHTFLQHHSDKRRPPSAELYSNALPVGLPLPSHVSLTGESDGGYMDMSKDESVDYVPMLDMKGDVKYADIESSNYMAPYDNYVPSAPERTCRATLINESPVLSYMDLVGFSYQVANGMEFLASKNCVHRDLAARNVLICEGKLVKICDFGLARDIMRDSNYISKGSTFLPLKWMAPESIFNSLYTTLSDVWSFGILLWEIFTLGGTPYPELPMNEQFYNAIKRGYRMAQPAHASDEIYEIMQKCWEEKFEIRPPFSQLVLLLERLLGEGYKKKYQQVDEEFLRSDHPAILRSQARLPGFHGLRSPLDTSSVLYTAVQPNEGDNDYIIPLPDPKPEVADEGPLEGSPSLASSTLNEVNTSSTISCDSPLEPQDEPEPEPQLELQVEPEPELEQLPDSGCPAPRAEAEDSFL
# PRKAA1 (human) = PRKAA1 (human) (UniProt Q13131); test: Caliper, Mobility shift assay off-chip
# PRKAA2 (human) = PRKAA2 (human) (UniProt P54646); test: Caliper, Mobility shift assay off-chip
# Chain of PRKAA2 (human) (P54646 whole entry, looked up): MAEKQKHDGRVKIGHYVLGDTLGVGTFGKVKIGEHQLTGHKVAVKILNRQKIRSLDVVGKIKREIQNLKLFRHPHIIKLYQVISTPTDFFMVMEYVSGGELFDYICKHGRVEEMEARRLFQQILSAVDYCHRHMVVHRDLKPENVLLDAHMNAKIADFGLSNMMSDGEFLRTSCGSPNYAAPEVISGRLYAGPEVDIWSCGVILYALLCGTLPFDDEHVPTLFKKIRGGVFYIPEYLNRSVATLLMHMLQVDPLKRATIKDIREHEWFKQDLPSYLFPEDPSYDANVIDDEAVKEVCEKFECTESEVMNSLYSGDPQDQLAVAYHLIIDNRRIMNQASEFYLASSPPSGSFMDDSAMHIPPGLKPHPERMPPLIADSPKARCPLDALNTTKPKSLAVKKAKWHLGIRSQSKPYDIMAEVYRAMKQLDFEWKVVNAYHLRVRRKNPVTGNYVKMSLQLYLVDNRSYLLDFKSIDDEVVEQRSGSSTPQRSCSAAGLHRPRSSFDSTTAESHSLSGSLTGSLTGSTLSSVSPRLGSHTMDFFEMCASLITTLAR
# MAP2K3 (human) = MAP2K3 (human) (UniProt P46734); test: ELISA
# MAP2K6 (human) = MAP2K6 (human) (UniProt P52564); test: ELISA
# Chain of MAP2K6 (human) (P52564 whole entry, looked up): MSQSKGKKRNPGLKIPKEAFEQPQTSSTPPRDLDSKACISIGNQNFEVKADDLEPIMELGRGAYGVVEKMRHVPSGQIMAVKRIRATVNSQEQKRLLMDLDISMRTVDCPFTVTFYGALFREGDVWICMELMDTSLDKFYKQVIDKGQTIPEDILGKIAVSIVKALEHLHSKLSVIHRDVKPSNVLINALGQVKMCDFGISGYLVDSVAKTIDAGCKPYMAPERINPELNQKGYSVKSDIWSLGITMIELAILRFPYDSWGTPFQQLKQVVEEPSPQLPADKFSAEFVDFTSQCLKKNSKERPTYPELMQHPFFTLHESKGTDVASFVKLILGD
# FGFR2 (human) = FGFR2 (human) (UniProt P21802); test: Caliper, Mobility shift assay off-chip
# PDGFRA (human) = PDGFRA (human) (UniProt P16234); test: Caliper, Mobility shift assay off-chip
# BRAF (human) = BRAF (human) (UniProt P15056); test: ELISA
# Chain of BRAF (human) (P15056 whole entry, looked up): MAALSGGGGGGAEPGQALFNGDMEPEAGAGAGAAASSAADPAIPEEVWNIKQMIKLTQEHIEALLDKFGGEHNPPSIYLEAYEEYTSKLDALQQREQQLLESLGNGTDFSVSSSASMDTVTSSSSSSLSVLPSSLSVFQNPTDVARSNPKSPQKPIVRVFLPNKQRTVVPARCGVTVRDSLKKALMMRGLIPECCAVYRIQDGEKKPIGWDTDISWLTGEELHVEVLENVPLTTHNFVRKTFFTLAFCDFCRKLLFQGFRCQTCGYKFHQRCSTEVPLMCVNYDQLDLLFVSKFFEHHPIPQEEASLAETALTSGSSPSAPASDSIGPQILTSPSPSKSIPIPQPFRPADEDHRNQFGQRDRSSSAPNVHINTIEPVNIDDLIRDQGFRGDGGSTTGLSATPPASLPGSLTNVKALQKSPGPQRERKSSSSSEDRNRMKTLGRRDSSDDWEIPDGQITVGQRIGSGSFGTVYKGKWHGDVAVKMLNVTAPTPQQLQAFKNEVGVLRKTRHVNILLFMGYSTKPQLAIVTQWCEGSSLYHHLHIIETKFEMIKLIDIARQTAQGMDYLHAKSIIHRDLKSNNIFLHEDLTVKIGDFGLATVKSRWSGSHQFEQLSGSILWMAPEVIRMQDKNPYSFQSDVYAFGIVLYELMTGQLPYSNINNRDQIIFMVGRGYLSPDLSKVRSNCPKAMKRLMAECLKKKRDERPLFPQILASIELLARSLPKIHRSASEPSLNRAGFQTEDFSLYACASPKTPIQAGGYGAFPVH
# RAF1 (human) = RAF1 (human) (UniProt P04049); test: ELISA
# Chain of RAF1 (human) (P04049 whole entry, looked up): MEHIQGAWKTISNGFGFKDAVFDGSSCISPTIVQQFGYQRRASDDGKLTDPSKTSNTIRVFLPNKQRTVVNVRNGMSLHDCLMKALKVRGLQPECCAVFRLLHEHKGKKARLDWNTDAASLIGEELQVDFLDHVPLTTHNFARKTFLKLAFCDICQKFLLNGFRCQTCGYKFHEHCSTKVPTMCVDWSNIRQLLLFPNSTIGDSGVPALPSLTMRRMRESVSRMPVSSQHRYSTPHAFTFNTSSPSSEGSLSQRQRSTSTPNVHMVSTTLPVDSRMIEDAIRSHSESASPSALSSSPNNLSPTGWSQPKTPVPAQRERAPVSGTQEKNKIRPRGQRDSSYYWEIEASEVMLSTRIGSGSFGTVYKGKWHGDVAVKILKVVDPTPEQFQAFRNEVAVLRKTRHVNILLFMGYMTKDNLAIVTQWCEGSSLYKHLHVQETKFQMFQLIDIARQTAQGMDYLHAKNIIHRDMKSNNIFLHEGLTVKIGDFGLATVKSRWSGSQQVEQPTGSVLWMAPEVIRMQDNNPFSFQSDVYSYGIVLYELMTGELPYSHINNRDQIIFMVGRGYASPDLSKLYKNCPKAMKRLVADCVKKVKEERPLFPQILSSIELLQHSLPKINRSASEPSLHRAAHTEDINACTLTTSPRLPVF
# Chain of ABL2 (human) (P42684 whole entry, looked up): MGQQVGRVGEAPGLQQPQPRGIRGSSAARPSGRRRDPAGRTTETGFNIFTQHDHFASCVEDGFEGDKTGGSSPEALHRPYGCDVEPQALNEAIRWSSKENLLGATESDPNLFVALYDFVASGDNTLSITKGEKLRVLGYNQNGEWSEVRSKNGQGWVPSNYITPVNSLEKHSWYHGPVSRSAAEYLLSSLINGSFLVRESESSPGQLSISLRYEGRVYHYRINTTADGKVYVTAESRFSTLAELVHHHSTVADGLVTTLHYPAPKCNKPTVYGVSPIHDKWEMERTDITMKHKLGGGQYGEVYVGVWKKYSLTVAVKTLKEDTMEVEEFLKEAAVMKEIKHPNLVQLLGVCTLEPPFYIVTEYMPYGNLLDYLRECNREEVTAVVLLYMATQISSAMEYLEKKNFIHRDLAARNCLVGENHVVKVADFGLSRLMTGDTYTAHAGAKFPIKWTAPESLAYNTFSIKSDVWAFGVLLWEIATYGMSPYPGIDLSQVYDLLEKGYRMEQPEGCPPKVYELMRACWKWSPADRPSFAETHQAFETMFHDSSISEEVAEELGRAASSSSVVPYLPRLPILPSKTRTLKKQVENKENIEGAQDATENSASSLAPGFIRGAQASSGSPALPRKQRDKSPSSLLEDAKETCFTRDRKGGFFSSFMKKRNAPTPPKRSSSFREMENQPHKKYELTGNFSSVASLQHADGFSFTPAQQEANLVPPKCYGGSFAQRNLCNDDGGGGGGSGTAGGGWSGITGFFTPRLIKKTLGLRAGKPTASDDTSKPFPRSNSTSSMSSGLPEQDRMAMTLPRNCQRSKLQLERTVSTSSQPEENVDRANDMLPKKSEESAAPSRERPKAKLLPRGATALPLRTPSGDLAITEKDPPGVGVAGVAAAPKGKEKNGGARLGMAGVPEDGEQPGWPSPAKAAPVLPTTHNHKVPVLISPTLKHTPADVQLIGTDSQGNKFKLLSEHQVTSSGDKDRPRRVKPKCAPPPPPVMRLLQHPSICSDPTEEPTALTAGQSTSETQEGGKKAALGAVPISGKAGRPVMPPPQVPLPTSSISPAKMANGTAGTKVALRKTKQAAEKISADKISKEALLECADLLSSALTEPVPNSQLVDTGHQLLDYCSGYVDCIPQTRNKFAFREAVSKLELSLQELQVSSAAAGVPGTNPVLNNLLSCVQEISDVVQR
# Chain of AURKA (human) (O14965 whole entry, looked up): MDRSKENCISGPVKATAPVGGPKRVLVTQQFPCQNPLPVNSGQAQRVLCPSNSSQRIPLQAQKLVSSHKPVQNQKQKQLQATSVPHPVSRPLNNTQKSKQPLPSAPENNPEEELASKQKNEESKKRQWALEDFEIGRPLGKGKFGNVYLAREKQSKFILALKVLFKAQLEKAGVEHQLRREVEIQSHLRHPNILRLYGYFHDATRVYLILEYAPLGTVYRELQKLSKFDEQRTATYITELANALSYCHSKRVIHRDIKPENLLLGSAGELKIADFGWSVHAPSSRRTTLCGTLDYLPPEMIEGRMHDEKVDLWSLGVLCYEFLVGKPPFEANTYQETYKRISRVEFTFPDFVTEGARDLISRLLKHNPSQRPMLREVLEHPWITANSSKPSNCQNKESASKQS
Ki (ABL2 (human)) [nM],Ki (AURKA (human)) [nM],Ki (CSF1R (human)) [nM],Ki (DDR1 (human)) [nM],Ki (DDR2 (human)) [nM],Ki (EPHA6 (human)) [nM],Ki (HIPK4 (human)) [nM],Ki (MAPK14 (human)) [nM],Ki (MUSK (human)) [nM],Ki (PDGFRB (human)) [nM],Ki (PRKAA1 (human)) [nM],Ki (PRKAA2 (human)) [nM],Ki (MAP2K3 (human)) [nM],Ki (MAP2K6 (human)) [nM],Ki (FGFR2 (human)) [nM],Ki (PDGFRA (human)) [nM],Ki (BRAF (human)) [nM],Ki (RAF1 (human)) [nM],SMILES
52.5,86.5,45.8,52,1.95,3.14,42.9,266,291,1.4,1500,1500,272,302,–,–,–,–,COc1cc2nccc(Oc3ccc(NC(=O)Nc4cc(C)on4)c(Cl)c3)c2cc1OC
–,–,–,–,–,–,–,–,–,–,–,–,–,–,18.1,–,–,–,Cc1cc2c(F)c(Oc3ncnn4cc(OC[C@@H](C)O)c(C)c34)ccc2[nH]1
5000,–,–,–,–,–,–,–,–,–,–,1670,–,–,–,2.76,5000,5000,Cc1ccc(F)c(NC(=O)Nc2ccc(-c3cccc4[nH]nc(N)c34)cc2)c1
